# US20230348424A1, “HETEROCYCLIC COMPOUNDS AND METHODS OF USE” (Schrödinger, Inc., priority 2022, published 2023)
# Legend:
# [1] = target: SOS1:KRAS (G12C) interaction (Homo sapiens (Human), UniProt Q07889); experiment: SOS1 KRas(G12C) FRET Assay; format: binding; conditions: 0.5 nM His10-SOS1 (res. 564-1049), 2.5 nM GST-KRAS G12C (res. 1-169), 2 hrs at RT
# In short: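 GST-KRAS G12C (res. 1-169) at 2.5 nM and His10-SOS1 (res. 564-1049) at 0.5 nM, final, in PBS with 0.1% BSA, 5 mM MgCl2, 100 mM KF, 5 mM DTT and 0.5% DMSO. After 2 h at RT, FRET read at 665/615 nm and normalized to DMSO and no-SOS1 controls. IC50 by non-linear regression.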
# human SOS1 = human SOS1 (Homo sapiens (Human), UniProt Q07889); experiment: Surface Plasmon Resonance (SPR) SOS1 Binding Assay; conditions: biotinylated SOS1 (res. 564-1049), Biacore 8K, 25° C., kinetic or steady state fit, 1:1 binding; read-out: hSOS1 KD
# Experimental: Binding to SOS1 was measured using a SPR assay with purified recombinant human SOS1 substrate (res. 564-1049 with N-terminal Avi tag; purified and biotinylated based on Hillig, et al., Proc Natl Acad Sci USA (2019); 116(7):2551-2560). SPR measurements were performed on a Biacore 8K SPR instrument (GE Healthcare, Sweden). Assays were performed at 25° C. using Series S SA sensor chips pre-coated with streptavidin (GE Healthcare, Cat. BR100531). Biotinylated SOS1 diluted in sample buffer (20 mM Tris HCI, 150 mM NaCl, 1 mM DTT, 0.05% TWEEN 20, 1 mM MgCh, pH 8.0) was captured to one flow cell of the chip to about 3,000 resonance units (RU) using sample buffer supplemented with 5% DMSO as a running buffer. Serial dilutions of the assayed compounds in the running buffer at 100, 50 or 0.5 µM were injected for 60 s at a flow rate of 30 µL/min and association phases were recorded. Dissociation of the samples was monitored for 600 s. Data processing was performed using Biacore Insight Software (Biacore, GE Healthcare). Sensorgrams recorded on a SA flow cell without captured protein were subtracted from sensorgrams recorded on the SOS1 surface. Blank injections of running buffer were used for double referencing and solvent correction was applied to all sample sensorgrams to correct for buffer mismatches. KDS were estimated using a kinetic or steady state, where applicable, fitting model describing a reversible equilibrium with 1:1 binding between SOS1 and the compound.
# Chain of SOS1:KRAS (G12C) interaction (Q07889 564-1049, stated change not applied): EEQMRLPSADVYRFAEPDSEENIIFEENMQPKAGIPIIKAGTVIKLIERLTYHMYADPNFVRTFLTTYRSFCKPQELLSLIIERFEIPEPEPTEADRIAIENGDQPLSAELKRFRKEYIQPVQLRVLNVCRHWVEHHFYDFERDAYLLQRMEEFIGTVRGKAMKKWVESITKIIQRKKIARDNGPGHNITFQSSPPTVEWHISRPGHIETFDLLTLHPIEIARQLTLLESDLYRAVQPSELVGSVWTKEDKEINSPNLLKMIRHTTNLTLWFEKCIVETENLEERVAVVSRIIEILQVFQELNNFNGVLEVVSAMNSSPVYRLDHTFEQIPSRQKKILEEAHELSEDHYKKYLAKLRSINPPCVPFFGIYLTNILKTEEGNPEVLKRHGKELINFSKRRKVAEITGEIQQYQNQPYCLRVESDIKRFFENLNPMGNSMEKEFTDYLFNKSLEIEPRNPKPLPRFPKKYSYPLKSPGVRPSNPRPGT
# Chain of human SOS1 (Q07889 564-1049): as the sequence (Q07889 564-1049, stated change not applied) above
SMILES,IC50 [1],Kd (human SOS1)
"Cc1c([C@@H](C)NC(=O)c2cn(C3CCOCC3)c(=O)cc2N[C@@H]2CCN(C)C2)cccc1C(F)(F)F [Example 3, N-((R)-1-(2-methyl-3-(trifluoromethyl)phenyl)ethyl)-4-(((R)-1-methylpyrrolidin-3-yl)amino)-6-oxo-1-(tetrahydro-2H-pyran-4-yl)-1,6-dihydropyridine-3-carboxamide]",41.2 nM,16 nM
"Cc1c([C@@H](C)NC(=O)c2cn(C3CCOCC3)c(=O)cc2N[C@H]2CCN(C)C2)cccc1C(F)(F)F [Example 4, N-((R)-1-(2-methyl-3-(trifluoromethyl)phenyl)ethyl)-4-(((S)-1-methylpyrrolidin-3-yl)amino)-6-oxo-1-(tetrahydro-2H-pyran-4-yl)-1,6-dihydropyridine-3-carboxamide]",45.9 nM,16 nM
"Cc1c([C@@H](C)NC(=O)c2cn(C3CCOCC3)c(=O)cc2N[C@@H]2CCCN(C)C2)cccc1C(F)(F)F [Example 5, N-((R)-1-(2-methyl-3-(trifluoromethyl)phenyl)ethyl)-4-(((R)-1-methylpiperidin-3-yl)amino)-6-oxo-1-(tetrahydro-2H-pyran-4-yl)-1,6-dihydropyridine-3-carboxamide]",35.5 nM,20 nM
"Cc1c([C@@H](C)NC(=O)c2cn(C3CCOCC3)c(=O)cc2N[C@H]2CCCN(C)C2)cccc1C(F)(F)F [Example 6, N-((R)-1-(2-methyl-3-(trifluoromethyl)phenyl)ethyl)-4-(((S)-1-methylpiperidin-3-yl)amino)-6-oxo-1-(tetrahydro-2H-pyran-4-yl)-1,6-dihydropyridine-3-carboxamide]",56.7 nM,30 nM
"Cc1c([C@@H](C)NC(=O)c2cn(C3CCOCC3)c(=O)cc2N[C@H]2C[C@H](N(C)C)C2)cccc1C(F)(F)F [Example 7, 4-(((1r,3R)-3-(dimethylamino)cyclobutyl)amino)-N-((R)-1-(2-methyl-3-(trifluoromethyl)phenyl)ethyl)-6-oxo-1-(tetrahydro-2H-pyran-4-yl)-1,6-dihydropyridine-3-carboxamide]",53.4 nM,20 nM

# The next lines start with the values.
IC50 [1],Kd (human SOS1),SMILES
48.6 nM,12 nM,"Cc1c([C@@H](C)NC(=O)c2cn(C3CCOCC3)c(=O)cc2NCC2CN(C)C2)cccc1C(F)(F)F [Example 8, (R)-N-(1-(2-methyl-3-(trifluoromethyl)phenyl)ethyl)-4-(((1-methylazetidin-3-yl)methyl)amino)-6-oxo-1-(tetrahydro-2H-pyran-4-yl)-1,6-dihydropyridine-3-carboxamide]"
39 nM,17 nM,"Cc1c([C@@H](C)NC(=O)c2cn(C3CCOCC3)c(=O)cc2NCCCN(C)C)cccc1C(F)(F)F [Example 9, (R)-4-((3-(dimethylamino)propyl)amino) -N-(1-(2-methyl-3-(trifluoromethyl)phenyl)ethyl)-6-oxo-1-(tetrahydro-2H-pyran-4-yl)-1,6-dihydropyridine-3-carboxamide]"
73 nM,74 nM,"Cc1c([C@@H](C)NC(=O)c2cn(C3CCOCC3)c(=O)cc2NCc2cncn2C)cccc1C(F)(F)F [Example 10, (R)-4-(((1-methyl-1H-imidazol-5-yl)methyl)amino)-N-(1-(2-methyl-3-(trifluoromethyl)phenyl)ethyl)-6-oxo-1-(tetrahydro-2H-pyran-4-yl)-1,6-dihydropyridine-3-carboxamide]"
705 nM,245 nM,"CNc1cc(=O)n(C2CCOCC2)cc1C(=O)N[C@H](C)c1cccc(C(F)(F)F)c1C [Example 12, (R)-N-(1-(2-methyl-3-(trifluoromethyl)phenyl)ethyl)-4-(methylamino)-6-oxo-1-(tetrahydro-2H-pyran-4-yl)-1,6-dihydropyridine-3-carboxamide]"
155 nM,91 nM,"Cc1c([C@@H](C)NC(=O)c2cn(C3CCOCC3)c(=O)cc2N[C@H]2CC[C@H](O)C2)cccc1C(F)(F)F [Example 13, 4-(((1S,3S)-3-hydroxycyclopentyl)amino)-N-((R)-1-(2-methyl-3-(trifluoromethyl)phenyl)ethyl)-6-oxo-1-(tetrahydro-2H-pyran-4-yl)-1,6-dihydropyridine-3-carboxamide]"
